One experiment relates to SERCA2a SUMOylation. The experiment can be described thus: Endogenous SERCA2a SUMOylation, SUMO-1 conjugates and Ubc9 in cardiomyocytes (immunoprecipitation / western blot). The format is cell-based, Sprague–Dawley rats. How it is done: Figure 1 N106 increases SERCA2a’s cellular activity and SUMOylation in adult cardiomyocytes. In-vitro characterization of activators of SERCA2a SUMOylation. Cell-based screening of small molecules identified one promising compound. Adult ventricular cardiomyocytes were isolated from Sprague–Dawley rats and treated with small molecules on dose-dependent manner for 24 h. DMSO-treated cardiomyocytes were used as a negative control. (a) Chemical structure of SERCA2a SUMOylation activator. N106, N-(4-methoxybenzo[d]thiazol-2-yl)-5-(4-methoxyphenyl)-1,3,4-oxadiazol-2-amine. (b-g) The effects of N106 compound in cardiomyocyte contractility and calcium transient. The dose-dependent effects of N106 compound presented on peak shortening, the time to maximal departure velocity, the time to maximal return velocity, calcium ratio, decay time constant (τ) and the time to 90% baseline (t90) fluorescence in cardiomyocytes were assessed using a video-based edge-detection system (IonOptix Inc.). n=25 cardiomyocytes from each three of hearts per condition. (h) The effects of N106 compound on the ATPase activity of SERCA2a. The ATPase activity were measured at 25 °C in 50 mM MOPS, 100 mM KCl, 5 mM MgCl2, 1 mM […] at pCa 5.0 by using a coupled enzyme system consisting of pyruvate kinase and lactate dehydrogenase, and monitoring the oxidation of the reduced form of NADH at […]. The enzyme activity was determined by using same set of cardiomyocytes. (i) The effect of N106 compound for the formation of SUMOylated SERCA2a was determined using the same set of cardiomyocytes. Endogenous SERCA2a SUMOylation was detected by immunoprecipitation with anti-SERCA2a and then western blotting with anti-SUMO-1 antibodies. The experiments shown are representative of three independent experiments with similar results. (j) The effect of N106 compound on global SUMOylation was measured by western blot analysis with an anti-SUMO-1 antibody in the same set of cardiomyocytes. The experiments shown are representative of three independent western blottings. Data are represented as mean±s.e.m. (n=3 mice hearts per each condition). Data are represented as mean±s.e.m. *P≤0.05; **P<0.001 (Student’s t-test) from DMSO control.
Protein extracts (20∼50 μg) were obtained from isolated cardiomyocytes, which was lysed in RIPA buffer (R&D Systems Inc., MN, USA) contained protease inhibitors (Complete mini, Roche Diagnostics, IN, USA) and 20 mM NEM (Sigma-Aldrich). For SERCA2a SUMOylation assays, cardiac protein extracts were immunoprecipitated with a SUMO-1 agarose resin (Santa Cruz Biotechnology Inc., CA, USA) for overnight at 4 °C. The resins were washed with cold lysis buffer three times. The immunocomplexes were then resolved by SDS–PAGE and western blot analysis was performed using a SERCA2a-specific antibody. […]
treated with small molecules were determined: peak shortening (b) and calcium transient (c). […]

The test system of another experiment is sham-operated mice. The experiment can be described thus: Haemodynamic measurements in sham-operated mice. Conditions: sham mice, 0.1, 1, 10 mg kg^−1. The format is in vivo. Here is the method:
One day after echocardiography, we performed in-vivo haemodynamics. The mice were anaesthetized with an intraperitoneal injection mixture of urethane (1 mg g^−1), etomidate (10 μg g^−1) and morphine (1 μg g^−1), and were then intubated via a tracheotomy and mechanically ventilated at 7 μl g^−1 tidal volume and 120 respirations per minute. A small incision was made in the apex and a French Millar cathether connected a high-fidelity pressure transducer (Scisense, London, ON, Canada) inserted into the LV. Haemodynamic recordings were performed after 5∼10 min of stable HR. The rate of pressure rise (+dP/dt) and maximal pressure, the time constant of isovolumic relaxation and HR were recorded and analysed. To determine the relative effects of the admittance and conductance techniques to contractility change induced by N106 compound infusion, whole haemodynamic function was recorded at both baseline and after administration of N106 compound through the external jugular vein. N106 compound was solubilized in 10% DMSO (Sigma-Aldrich), 10% Tween-80 (Sigma-Aldrich) and saline for in-vivo experiments. N106 or vehicle solutions were continuously infused through the external jugular vein at a rate of 50 μl min^−1 for 2 min in each dose. Whole haemodynamic functions of increasing dose of N106 of each mouse were recorded for ∼4 h. […]

Entries after “also recorded” stand apart in the source; their conditions may differ.

In the case of `COc1ccc(-c2nnc(Nc3nc4c(OC)cccc4s3)o2)cc1` [Compound N106, N-(4-methoxybenzo[d]thiazol-2-yl)-5-(4-methoxyphenyl)-1,3,4-oxadiazol-2-amine], in the experiment with SERCA2a SUMOylation (10 μM, 24 h), the “endogenous SERCA2a SUMOylation” value is given as “enhancement of endogenous SERCA2a SUMOylation; also recorded: significantly induced” and the “protein levels of E2 conjugation enzyme, Ubc9” value is reported as “without upregulation of Ubc9”. The “SERCA2a SUMOylation, time course” value with SERCA2a SUMOylation (10 μM, 10∼30 min, sustained at 24 h) is reported as “increased”. Besides, in the experiment on SERCA2a SUMOylation (in response to the concentration of N106, 24 h), the “whole SUMO-1 conjugates” value is on record as “increased”. Further, the “levels of SERCA2a SUMOylation” value with SERCA2a SUMOylation (increasing N106 concentration, 24 h) was “increased”. In addition, the “effect on ESPVR slope, dP/dt max, maximal pressure and heart rate” value with sham-operated mice was “no significant effect; also recorded: not statistically significant”.

The values are drawn from publication PMC4467461, “Small-molecule activation of SERCA2a SUMOylation for the treatment of heart failure” (Nature Communications, 2015).
